Test results as given in US20240262819A1, “NOVEL COMPOUNDS HAVING INHIBITORY ACTIVITY AGAINST GLUCOSYLCERAMIDE SYNTHASE OR PHARMACEUTICALLY ACCEPTABLE SALT THEREOF, PROCESSES FOR PREPARING THE SAME, AND PHARMACEUTICAL COMPOSITIONS COMPRISING THE SAME” (YUHAN CORPORATION, priority 2021, published 2024).
Where two headings read alike, the source gives them in different places.

How the values were obtained:
[1] = target: glucosylceramide synthase (GCS) (Homo sapiens (Human), UniProt Q16739); test: Evaluation of inhibitory activities against GCS (A549 cell lysate, NBD C6-ceramide, HPLC); assay type: biochemical
In short: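 GCS activity in A549 cell lysate (50 mM HEPES, pH 7.3) with NBD C6-ceramide, reacted 90 min at 37 °C. Lipids were chloroform/methanol-extracted and separated by normal-phase HPLC with fluorescence detection (ex 470/em 530 nm). GlcCer fraction of peak area was normalized between DMSO and ibiglustat, and IC50 obtained by curve fitting.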

[2] = tested on: GM1 production in Jurkat cells; test: cells; assay type: cell-based
[3] = % GCS activity, A549 cell lysate, 37° C. for 90 minutes, read-out: IC50

Sequence of glucosylceramide synthase (GCS) (Q16739 whole entry): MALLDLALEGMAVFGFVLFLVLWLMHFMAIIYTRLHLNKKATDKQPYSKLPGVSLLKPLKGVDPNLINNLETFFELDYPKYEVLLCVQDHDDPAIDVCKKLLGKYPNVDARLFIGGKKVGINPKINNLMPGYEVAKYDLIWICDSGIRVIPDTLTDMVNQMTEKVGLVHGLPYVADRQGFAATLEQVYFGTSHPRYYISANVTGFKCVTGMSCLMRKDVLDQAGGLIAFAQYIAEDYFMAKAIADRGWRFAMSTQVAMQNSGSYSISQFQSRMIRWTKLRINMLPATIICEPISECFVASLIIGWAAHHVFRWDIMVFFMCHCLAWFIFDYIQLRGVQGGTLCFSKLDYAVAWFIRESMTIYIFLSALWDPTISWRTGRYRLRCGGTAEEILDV

## CCCOc1ccc(-c2ccc3c(c2)CCC(C)(C)[C@H]3NC(=O)O[C@@H]2CN3CCC2CC3)cc1 [Example 144, (S)-quinuclidin-3-yl((R)-2,2-dimethyl-6-(4-propoxyphenyl)-1,2,3,4-tetrahydronaphthalen-1-yl) carbamate]
[1]; [3]
  IC50: 0.42 nM
[2]; read-out: IC50
  IC50: 2.3 nM

## CCCCOc1ccc(-c2ccc3c(c2)CCC(C)(C)[C@H]3NC(=O)O[C@@H]2CN3CCC2CC3)cc1 [Example 145, (S)-quinuclidin-3-yl((R)-6-(4-butoxyphenyl)-2,2-dimethyl-1,2,3,4-tetrahydronaphthalen-1-yl)carbamate]
[1]
  IC50: 0.29 nM
[2]; Homo sapiens, Jurkat, 72 h
  IC50: 0.3 nM

## CC(C)COc1ccc(-c2ccc3c(c2)CCC(C)(C)[C@H]3NC(=O)O[C@@H]2CN3CCC2CC3)cc1 [Example 146, (S)-quinuclidin-3-yl((R)-6-(4-isobutoxyphenyl)-2,2-dimethyl-1,2,3,4-tetrahydronaphthalen-1-yl)carbamate]
[1]
  IC50: 0.17 nM
[2]; Homo sapiens, Jurkat, 72 h
  IC50: 0.68 nM

## COc1c(C)cc(-c2ccc3c(c2)CCC(C)(C)[C@H]3NC(=O)O[C@@H]2CN3CCC2CC3)cc1C [Example 147, (S)-quinuclidin-3-yl((R)-6-(4-methoxy-3,5-dimethylphenyl)-2,2-dimethyl-1,2,3,4-tetrahydronaphthalen-1-yl) carbamate]
[1]; [3]
  IC50: 1.18 nM
[2]; read-out: IC50
  IC50: 9.4 nM

## Cc1cc(-c2ccc3c(c2)CCC(C)(C)[C@H]3NC(=O)O[C@@H]2CN3CCC2CC3)cc(C)c1OC(C)C [Example 149, (S)-quinuclidin-3-yl((R)-6-(4-isopropoxy-3,5-dimethylphenyl)-2,2-dimethyl-1,2,3,4-tetrahydronaphthalen-1-yl) carbamate]
[1]; [3]
  IC50: 1.77 nM
[2]; read-out: IC50
  IC50: 14.6 nM

## CCCCOc1c(C)cc(-c2ccc3c(c2)CCC(C)(C)[C@H]3NC(=O)O[C@@H]2CN3CCC2CC3)cc1C [Example 152, (S)-quinuclidin-3-yl((R)-6-(4-butoxy-3,5-dimethylphenyl)-2,2-dimethyl-1,2,3,4-tetrahydronaphthalen-1-yl)carbamate]
[1]
  IC50: 1.65 nM
[2]; Homo sapiens, Jurkat, 72 h
  IC50: 8.3 nM

## COc1cccc(-c2ccc3c(c2)CCC(C)(C)[C@H]3NC(=O)O[C@@H]2CN3CCC2CC3)c1 [Example 153, (S)-quinuclidin-3-yl((R)-6-(3-methoxyphenyl)-2,2-dimethyl-1,2,3,4-tetrahydronaphthalen-1-yl)carbamate]
[1]
  IC50: 0.32 nM
[2]; Homo sapiens, Jurkat, 72 h
  IC50: 2.1 nM

## CCOc1cccc(-c2ccc3c(c2)CCC(C)(C)[C@H]3NC(=O)O[C@@H]2CN3CCC2CC3)c1 [Example 154, (S)-quinuclidin-3-yl((R)-6-(3-ethoxyphenyl)-2,2-dimethyl-1,2,3,4-tetrahydronaphthalen-1-yl)carbamate]
[1]
  IC50: 0.38 nM
[2]; Homo sapiens, Jurkat, 72 h
  IC50: 2.9 nM

## CCCCOc1cccc(-c2ccc3c(c2)CCC(C)(C)[C@H]3NC(=O)O[C@@H]2CN3CCC2CC3)c1 [Example 155, (S)-quinuclidin-3-yl((R)-6-(3-butoxyphenyl)-2,2-dimethyl-1,2,3,4-tetrahydronaphthalen-1-yl)carbamate]
[1]
  IC50: 0.39 nM
[2]; Homo sapiens, Jurkat, 72 h
  IC50: 0.7 nM

## CC(C)Cc1cccc(-c2ccc3c(c2)CCC(C)(C)[C@H]3NC(=O)O[C@@H]2CN3CCC2CC3)c1 [Example 157, (S)-quinuclidin-3-yl((R)-6-(3-isobutylphenyl)-2,2-dimethyl-1,2,3,4-tetrahydronaphthalen-1-yl)carbamate]
[1]
  IC50: 0.81 nM
[2]; Homo sapiens, Jurkat, 72 h
  IC50: 2.64 nM

## CCCOc1cccc(-c2ccc3c(c2)CCC(C)(C)[C@H]3NC(=O)O[C@@H]2CN3CCC2CC3)c1 [Example 159, (S)-quinuclidin-3-yl((R)-2,2-dimethyl-6-(3-propoxyphenyl)-1,2,3,4-tetrahydronaphthalen-1-yl)carbamate]
[1]
  IC50: 4.28 nM
[2]; Homo sapiens, Jurkat, 72 h
  IC50: 1.7 nM

## CC(C)Cc1ccc(-c2ccc3c(c2)CCC(C)(C)[C@H]3NC(=O)O[C@@H]2CN3CCC2CC3)cc1 [Example 160, (S)-quinuclidin-3-yl((R)-6-(4-isobutylphenyl)-2,2-dimethyl-1,2,3,4-tetrahydronaphthalen-1-yl)carbamate]
[1]
  IC50: 5.05 nM
[2]; Homo sapiens, Jurkat, 72 h
  IC50: 3 nM

## CC(C)COc1cccc(-c2ccc3c(c2)CCC(C)(C)[C@H]3NC(=O)O[C@@H]2CN3CCC2CC3)c1 [Example 163, (S)-quinuclidin-3-yl((R)-6-(3-isobutoxyphenyl)-2,2-dimethyl-1,2,3,4-tetrahydronaphthalen-1-yl)carbamate]
[1]
  IC50: 8.05 nM
[2]; Homo sapiens, Jurkat, 72 h
  IC50: 1.3 nM

## CCOc1c(C)cc(-c2ccc3c(c2)CCC(C)(C)[C@H]3NC(=O)O[C@@H]2CN3CCC2CC3)cc1C [Example 164, (S)-quinuclidin-3-yl((R)-6-(4-ethoxy-3,5-dimethylphenyl)-2,2-dimethyl-1,2,3,4-tetrahydronaphthalen-1-yl)carbamate]
[1]
  IC50: 1.39 nM
[2]; Homo sapiens, Jurkat, 72 h
  IC50: 8.4 nM

## COc1ccc(-c2ccc3c(c2)CCC(C)(C)[C@H]3NC(=O)O[C@@H]2CN3CCC2CC3)cc1 [Example 166, (S)-quinuclidin-3-yl((R)-6-(4-methoxyphenyl)-2,2-dimethyl-1,2,3,4-tetrahydronaphthalen-1-yl)carbamate]
[1]
  IC50: 0.69 nM
[2]; Homo sapiens, Jurkat, 72 h
  IC50: 5.9 nM

## CC(C)Oc1ccc(-c2ccc3c(c2)CCC(C)(C)[C@H]3NC(=O)O[C@@H]2CN3CCC2CC3)cc1 [Example 167, (S)-quinuclidin-3-yl((R)-6-(4-isopropoxyphenyl)-2,2-dimethyl-1,2,3,4-tetrahydronaphthalen-1-yl)carbamate]
[1]
  IC50: 0.37 nM
[2]; Homo sapiens, Jurkat, 72 h
  IC50: 3.16 nM

## CCc1ccc(-c2ccc3c(c2)CCC(C)(C)[C@H]3NC(=O)O[C@@H]2CN3CCC2CC3)cc1F [Example 169, (S)-quinuclidin-3-yl((R)-6-(4-ethyl-3-fluorophenyl)-2,2-dimethyl-1,2,3,4-tetrahydronaphthalen-1-yl)carbamate]
[1]
  IC50: 0.14 nM
[2]; Homo sapiens, Jurkat, 72 h
  IC50: 1.7 nM

## CCc1ccc(-c2cc3c(cc2F)[C@H](NC(=O)O[C@@H]2CN4CCC2CC4)C(C)(C)CC3)cc1 [Example 170, (S)-quinuclidin-3-yl((R)-6-(4-ethylphenyl)-7-fluoro-2,2-dimethyl-1,2,3,4-tetrahydronaphthalen-1-yl)carbamate]
[1]
  IC50: 0.31 nM
[2]; Homo sapiens, Jurkat, 72 h
  IC50: 1.4 nM

## CCCCc1ccc(-c2cc3c(cc2F)[C@H](NC(=O)O[C@@H]2CN4CCC2CC4)C(C)(C)CC3)cc1 [Example 173, (S)-quinuclidin-3-yl((R)-6-(4-butylphenyl)-7-fluoro-2,2-dimethyl-1,2,3,4-tetrahydronaphthalen-1-yl)carbamate]
[1]
  IC50: 0.24 nM
[2]; Homo sapiens, Jurkat, 72 h
  IC50: 0.3 nM

## CC(C)Cc1ccc(-c2cc3c(cc2F)[C@H](NC(=O)O[C@@H]2CN4CCC2CC4)C(C)(C)CC3)cc1 [Example 174, (S)-quinuclidin-3-yl((R)-7-fluoro-6-(4-isobutylphenyl)-2,2-dimethyl-1,2,3,4-tetrahydronaphthalen-1-yl)carbamate]
[1]
  IC50: 0.35 nM
[2]; Homo sapiens, Jurkat, 72 h
  IC50: 0.9 nM

## CCCCOc1ccc(-c2cc3c(cc2F)[C@H](NC(=O)O[C@@H]2CN4CCC2CC4)C(C)(C)CC3)cc1 [Example 178, (S)-quinuclidin-3-yl((R)-6-(4-butoxyphenyl)-7-fluoro-2,2-dimethyl-1,2,3,4-tetrahydronaphthalen-1-yl)carbamate]
[1]
  IC50: 0.22 nM
[2]; Homo sapiens, Jurkat, 72 h
  IC50: 0.4 nM

## CC(C)COc1ccc(-c2cc3c(cc2F)[C@H](NC(=O)O[C@@H]2CN4CCC2CC4)C(C)(C)CC3)cc1 [Example 179, (S)-quinuclidin-3-yl((R)-7-fluoro-6-(4-isobutoxyphenyl)-2,2-dimethyl-1,2,3,4-tetrahydronaphthalen-1-yl)carbamate]
[1]
  IC50: 0.19 nM
[2]; Homo sapiens, Jurkat, 72 h
  IC50: 0.22 nM
